# Assay results: publication PMC12673918, “Design, Synthesis, and Selective Antiproliferative Activity of Indolizine Derivatives as Microtubule Destabilizers” (Archiv Der Pharmazie, 2025)
# Read-outs that look alike come from different tables or passages of the source.
# Columns and labels:
# Assay type in all cases: cell-based
# BT‐20 (breast carcinoma) = assay: Resazurin cell viability assay, BT‐20; conditions: 50 µM; for inhibition at 50 µM: Homo sapiens, BT-20
# Protocol: (§1) The tongue squamous cell carcinoma cell line CAL‐27 (ATCC CRL‐2095), breast carcinoma BT‐20 (ATCC HTB‐19), gastric carcinoma HGC‐27 (BCRJ Code 0310), and normal oral fibroblast OHMF (culture of fibroblasts derived from human oral healthy mucosa, approved by the Research Ethics Committee of the University of São Paulo, Campus of Ribeirão Preto, Brazil (with protocol number 049) were cultured in DMEM medium (DMEM, Sigma‐Aldrich, St. Louis, MO, USA) supplemented with 10% fetal bovine serum and a solution of penicillin (100 U/mL) and streptomycin (100 μg/mL). The cultures were maintained in a humidified incubator with 5% CO₂ at 37°C.
# (§2) Cell viability was analyzed using the resazurin assay. For this, cells were seeded in 96‐well plates (1 × 10^3 cells per well) and incubated at 37°C with 5% CO₂ overnight for cell adhesion. Subsequently, the cells were treated with different compounds (0–50 µM) for 72 h. After treatment, the medium was replaced with phenol‐free DMEM medium (Sigma‐Aldrich) containing resazurin at a concentration of 44 µM (Sigma‐Aldrich). After incubation for 4 h at 37°C, fluorescence detection was performed (excitation 530/25 nm, emission 590/35 nm) using a microplate fluorimeter (Synergy 2, Biotek). Initial cell growth inhibition assays were performed in triplicate or quadruplicate, while IC50 determinations were conducted in triplicate. Data were plotted, and IC₅₀ values were determined by nonlinear regression using GraphPad Prism software 9.0.
# (§3) ^a Cell viability was assessed using the resazurin assay after 72 hours of compound treatment. Fluorescence was measured to estimate % of cellular growth inhibition at 50 µM values, based on triplicate experiments.
# (§4) ^b IC50 values were determined using the same resazurin-based assay, with fluorescence measurements performed after 72 hours of treatment. These experiments were carried out in triplicate.
# [1] = tested on: HGC‐27 (gastric carcinoma); assay: Resazurin cell viability assay, HGC‐27; conditions: 50 µM; for inhibition at 50 µM: Homo sapiens, HGC-27
# Protocol: as §1, §2, §3, §4
# CAL‐27 (oral carcinoma) = assay: Resazurin cell viability assay, CAL‐27; conditions: 50 µM; for inhibition at 50 µM: Homo sapiens, CAL-27
# Protocol: as §1, §2, §3, §4
# human P2X7 receptor = molecular target: T1, human P2X7 receptor (Homo sapiens, UniProt Q99572); assay: YO‐PRO‐1 dye uptake assay for the P2X7 receptor; conditions: for inhibition at 10 µM: P2X7, read-out: % Inhibition of P2X7R at 10 µM compounds’ concentration
# T1 construct: host or cells: HEK-293
# T1 sequence (Q99572 1-595): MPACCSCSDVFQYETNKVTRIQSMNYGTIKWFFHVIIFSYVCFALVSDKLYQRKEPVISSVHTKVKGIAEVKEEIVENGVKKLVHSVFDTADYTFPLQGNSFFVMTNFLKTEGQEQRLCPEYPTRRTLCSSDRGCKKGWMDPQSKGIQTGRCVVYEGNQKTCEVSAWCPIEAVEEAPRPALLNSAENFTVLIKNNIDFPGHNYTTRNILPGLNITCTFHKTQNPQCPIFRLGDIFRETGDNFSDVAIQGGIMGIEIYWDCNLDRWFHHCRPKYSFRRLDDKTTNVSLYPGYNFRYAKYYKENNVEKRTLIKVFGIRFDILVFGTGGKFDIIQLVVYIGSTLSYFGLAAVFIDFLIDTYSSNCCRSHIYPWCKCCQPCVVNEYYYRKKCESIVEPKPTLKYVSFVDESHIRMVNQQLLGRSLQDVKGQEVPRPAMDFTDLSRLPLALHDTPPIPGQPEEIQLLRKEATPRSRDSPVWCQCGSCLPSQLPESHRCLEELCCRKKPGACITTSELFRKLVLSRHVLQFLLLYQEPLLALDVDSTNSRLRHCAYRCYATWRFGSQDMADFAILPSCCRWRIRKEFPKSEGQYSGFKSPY
# Protocol: HEK‐293 cell lines stably expressing human P2X7 receptor (hP2X7R‐HEK‐293, B'SYS GmbH, Witterswil, Switzerland) were maintained in a 50/50 mix of Dulbecco's Modified Eagle Medium and F12 medium (DMEM/F12) supplemented with 9% (v/v) FCS, 1% (v/v) Penicillin/Streptomycin (10000 I.U./mL, 10 mg/mL in 0.9% NaCl) and G418 (100 µg/mL) at 37°C and 5% CO2. Cells were subcultured in cell culture 75 cm^2 flasks and split every 2‐4 days (1:3; 1:6; 1:10) once confluent.
# HEK‐293 cell lines stably expressing human P2X7 receptor were seeded into black‐walled Nunc 96‐well optical bottom plates (Thermo Fisher Scientific) at 2.0–4.0 × 10^4 cells/well and incubated at 37°C for 24–48 h. After removing the culture medium, cells were washed with 100 µL wash buffer (280 mM Sucrose; 5.6 mM KCl; 0.5 mM CaCl2; 10 mM D‐Glucose; 10 mM HEPES; 5 mM N‐Methyl‐D‐glucamine (pH 7.4)). Then, 50 µL assay buffer (280 mM Sucrose; 6.4 mM KCl, 10 mM D‐Glucose; 10 mM HEPES; 5.0 mM N‐Methyl‐D‐glucamine (pH 7.4)) and 50 µL of antagonist dilutions (10^–5–10^–9 M) in assay buffer were added, and the cells were incubated at 37°C for 30 min. […] Finally, the uptake of YO‐PRO‐1 dye was recorded in a 9‐point‐well scan by following the fluorescence change using a FlexStation 3 Multi‐Mode Microplate Reader (Molecular Devices, San Jose, CA, USA, Software SoftMax7 Pro, endpoint protocol, well scan with reading pattern “fill scan”, λ ex = 485 nm, λ em = 535 nm). To determine the concentration‐dependent uptake inhibition by antagonists, the YO‐PRO‐1 uptake, expressed as RFU, was plotted against the concentrations of the compounds.
# human P2X4 receptor = molecular target: T2, human P2X4 receptor (Homo sapiens, UniProt Q99571); assay: Ca2+‐flux assay for the hP2X4 receptor; conditions: read-out: % Inhibition of P2X4R at 10 µM compounds’ concentration
# T2 construct: expressed in transfected cells; host or cells: human 1321N1 astrocytoma cells
# T2 sequence (Q99571 1-388): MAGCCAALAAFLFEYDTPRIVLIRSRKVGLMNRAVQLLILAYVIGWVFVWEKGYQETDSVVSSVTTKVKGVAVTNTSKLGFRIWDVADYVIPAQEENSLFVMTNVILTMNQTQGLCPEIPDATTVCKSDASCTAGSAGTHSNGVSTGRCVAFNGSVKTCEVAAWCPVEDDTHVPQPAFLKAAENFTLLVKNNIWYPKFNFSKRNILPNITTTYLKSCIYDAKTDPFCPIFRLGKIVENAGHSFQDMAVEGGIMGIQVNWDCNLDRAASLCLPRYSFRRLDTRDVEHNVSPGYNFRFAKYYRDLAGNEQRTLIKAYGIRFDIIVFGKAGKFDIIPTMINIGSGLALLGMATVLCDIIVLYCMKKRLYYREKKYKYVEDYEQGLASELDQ
# Protocol: Human 1321N1 astrocytoma cells stably expressing the human P2X4 receptor (generated in‐house) were cultured in Dulbecco's Modified Eagle Medium supplemented with 9% (v/v) FCS, 1% (v/v) Penicillin/Streptomycin (10000 I.U./mL, 10 mg/mL in 0.9% NaCl) and puromycin (1 µg/mL) as a selection antibiotic at 37°C and 5% CO2. Cells were subcultured in cell culture 75 cm^2 flasks and split every 2–4 days (1:5; 1:6) once confluent.
# 1321N1 cells stably expressing human P2X4 receptor were seeded into black‐walled 96‐well plates (Thermo Fisher Scientific) at 2.5 × 10^4 cells/well and incubated at 37°C for 24–48 h. All test compounds were diluted in assay buffer solution (SBS: 135 mM NaCl; 5 mM KCl; 1 mM MgCl2.6 H2O; 1.8 mM CaCl2; 5.6 mM D‐Glucose; 10 mM HEPES, 0.1% (m/v) BSA, 0.05% (m/v) gelatine, 2.3 mM probenecid). The culture medium was removed, and 100 µL of 4 μM fluorescent Ca^2+ indicator Calbryte520AM in SBS was added and incubated at 37°C for 1 h. The dye solution was then removed, 100 µL of SBS solution and 50 µL of antagonist dilutions (10^–5–10^–9 M) in SBS were added, and the cells were incubated at room temperature for an extra 30 min. Finally, 50 µL of ATP (at a concentration of the previously determined EC50‐ value) was added by using FlexStation 3 Multi‐Mode Microplate Reader (Molecular Devices, San Jose, CA, USA, Software SoftMax7 Pro). The changes in intracellular Ca^2+ ion concentrations were monitored over 200 s (20 s baseline) by measuring the fluorescence signal at λ ex = 494 nm and λ em = 516 nm ([…] cut‐off). The concentration‐dependent decrease in Ca^2+‐flux, expressed as RFU, was plotted against the concentrations of the compounds.
# [2] = 72 hours, triplicate, read-out: % Cellular growth inhibition (at 50 µM) BT-20 (supplement)
# [3] = 72 hours, triplicate, read-out: % Cellular growth inhibition (at 50 µM) HGC-27 (supplement)
# [4] = 72 hours, triplicate, read-out: % Cellular growth inhibition (at 50 µM) CAL-27 (supplement)
# [5] = 72 h, mean ± SD, n = 3, read-out: % Cellular growth inhibition (at 50 µM) BT‐20
# [6] = 72 h, mean ± SD, n = 3, read-out: % Cellular growth inhibition (at 50 µM) HGC‐27
# [7] = 72 h, mean ± SD, n = 3, read-out: % Cellular growth inhibition (at 50 µM) CAL‐27
Molecule,inhibition at 50 µM (BT‐20 (breast carcinoma); [5]) [%],"inhibition at 50 µM [1, 6] [%]",inhibition at 50 µM (CAL‐27 (oral carcinoma); [7]) [%],inhibition at 10 µM (human P2X7 receptor) [%],inhibition at 10 µM (human P2X4 receptor) [%],other results
1‐(4‐methoxyphenyl)‐2‐(pyridin‐2‐yl)ethanone [Compound 4c],–,–,–,–,–,"% Cellular growth inhibition (at 50 µM) BT-20 (supplement) (BT‐20 (breast carcinoma); 72 hours, triplicate): 13.7 ± 0.7%; % Cellular growth inhibition (at 50 µM) HGC-27 (supplement) ([1]; 72 hours, triplicate): 14.1 ± 1.8%; % Cellular growth inhibition (at 50 µM) CAL-27 (supplement) (CAL‐27 (oral carcinoma); 72 hours, triplicate): 9.0 ± 0.8%"
2‐(pyridin‐2‐yl)‐1‐(p‐tolyl)ethanone [Compound 4d],–,–,–,–,–,"% Cellular growth inhibition (at 50 µM) BT-20 (supplement) (BT‐20 (breast carcinoma); 72 hours, triplicate): 17.4 ± 0.6%; % Cellular growth inhibition (at 50 µM) HGC-27 (supplement) ([1]; 72 hours, triplicate): 17.3 ± 1.2%; % Cellular growth inhibition (at 50 µM) CAL-27 (supplement) (CAL‐27 (oral carcinoma); 72 hours, triplicate): 12.6 ± 1.2%"
"O=C(NCC12CC3CC(CC(C3)C1)C2)c1cc(CCCNCCCO)ccc1Cl [AZD9056, reference compound]",–,–,–,–,–,"IC50 (human P2X7 receptor; reference compound, same conditions, read-out: pIC50 at P2X7R (converted)): 10.5 nM"
"O=C(Cc1ccccn1)c1ccccc1 [Compound 4a, 1‐phenyl‐2‐(pyridin‐2‐yl)ethanone]",–,–,–,–,–,"inhibition at 50 µM (BT‐20 (breast carcinoma); [2]): 7.5 ± 0.5%; inhibition at 50 µM [1, 3]: 2.4 ± 0.9%; inhibition at 50 µM (CAL‐27 (oral carcinoma); [4]): 12.2 ± 2%"
"O=C(Cc1ccccn1)c1ccc(Cl)cc1 [Compound 4b, 1‐(4‐chlorophenyl)‐2‐(pyridin‐2‐yl)ethanone]",–,–,–,–,–,"inhibition at 50 µM (BT‐20 (breast carcinoma); [2]): 17.3 ± 1.8%; inhibition at 50 µM [1, 3]: 16.1 ± 1.6%; inhibition at 50 µM (CAL‐27 (oral carcinoma); [4]): 11.4 ± 0.4%"
"O=C(Cc1ccccn1)c1ccc(Cl)c(Cl)c1 [Compound 4e, 1‐(3,4‐dichlorophenyl)‐2‐(pyridin‐2‐yl)ethanone]",–,–,–,–,–,"inhibition at 50 µM (BT‐20 (breast carcinoma); [2]): 43.3 ± 0.6%; inhibition at 50 µM [1, 3]: 36.9 ± 0.8%; inhibition at 50 µM (CAL‐27 (oral carcinoma); [4]): 22.3 ± 1.3%"
"COc1cc(C(=O)Cc2ccccn2)cc(OC)c1OC [Compound 4f, 2‐(pyridin‐2‐yl)‐1‐(3,4,5‐trimethoxyphenyl)ethenone]",19 ± 1.2,10 ± 0.7,20 ± 2.2,–,–,–
"COc1ccc(CC(=O)c2cc(OC)c(OC)c(OC)c2)nc1 [Compound 5f, 2‐(5‐methoxypyridin‐2‐yl)‐1‐(3,4,5‐trimethoxyphenyl)ethenone]",52 ± 4.2,48 ± 4.9,67 ± 2.7,5,4,–
"O=C(c1ccccc1)c1ccn2ccccc12 [Compound 6a, (Indolizin‐1‐yl)(phenyl)methanone]",26 ± 1,20 ± 1.1,15 ± 0.8,–,–,–
"O=C(c1ccc(Cl)cc1)c1ccn2ccccc12 [Compound 6b, (4‐chlorophenyl)(indolizin‐1‐yl)methanone]",32 ± 0.8,26 ± 1,25 ± 0.4,10,-3,–
"Cc1ccc(C(=O)c2ccn3ccccc23)cc1 [Compound 6c, (Indolizin‐1‐yl)(p‐tolyl)methanone]",28 ± 1.3,20 ± 0.6,22 ± 2.6,-8,3,–
"COc1ccc(C(=O)c2ccn3ccccc23)cc1 [Compound 6d, (Indolizin‐1‐yl)(4‐methoxyphenyl)methanone]",28 ± 0.5,24 ± 1.1,18 ± 0.6,5,0,–
"O=C(c1ccc(Cl)c(Cl)c1)c1ccn2ccccc12 [Compound 6e, (3,4‐dichlorophenyl)(indolizin‐1‐yl)methanone]",40 ± 0.4,41 ± 1,42 ± 0.8,7,9,–
"COc1cc(C(=O)c2ccn3ccccc23)cc(OC)c1OC [Compound 6f, (Indolizin‐1‐yl)(3,4,5‐Trimethoxyphenyl)Methanone]",43 ± 0.5,38 ± 1.6,57 ± 0.9,–,–,–
"COc1ccc2c(C(=O)c3ccccc3)ccn2c1 [Compound 7a, (6‐methoxyindolizin‐1‐yl)(phenyl)methanone]",20 ± 0.4,18 ± 0.5,20 ± 0.9,-6,-7,–
